What was measured:
Type in all cases: in vivo
Brachiaria decumbens = assay: greenhouse post-emergence treatment, BRADC; conditions: for inhibition at 500000 µg/mL (stock): sc, 504 h, 21 DAT
Procedure: (§1) The culture containers used were plastic pots containing loamy sand with approximately 3.0% of humus as substrate. The seeds of the test plants were sown separately for each species.
(§2) For the post-emergence treatment, the test plants were grown to a plant height of from 3 to 15 cm, depending on the plant habit, and only then treated with the active compounds which had been suspended or emulsified in water. To this end, the test plants were either sown directly, and grown in the same containers, or they were first grown separately as seedlings and transplanted into the test containers a few days prior to treatment.
(§3) Depending on the species, the plants were kept at 10-25° C. and 20-35° C., respectively.
(§4) The test period extended over 2 to 4 weeks. During this time, the plants were tended and their response to the individual treatments was evaluated.
(§5) Evaluation was carried out using a scale from 0 to 100. 100 means no emergence of the plants, or complete destruction of at least the above-ground parts, and 0 means no damage or normal course of growth. A good herbicidal activity is given at values of at least 70, and very good herbicidal activity is given at values of at least 85.
(§6) The respective stated components A and B, and if appropriate, C were formulated as a 10% by weight strength emulsion concentrate and, with addition of the amount of solvent system, introduced into the spray liquor used for applying the active compound. In the examples, the solvent used was water.
(§7) In the examples below, using the method of S. R. Colby (1967) “Calculating synergistic and antagonistic responses of herbicide combinations”, Weeds 15, p. 22ff., the value E, which is expected if the activity of the individual active compounds is only additive, was calculated. E=X+Y−(X·Y/100) where X=effect in percent using herbicide A at an application rate a; • Y=effect in percent using herbicide B at application rate b; • E=expected effect (in %) of herbicide A+herbicide B at application rates a+b.

Poa annua = assay: greenhouse post-emergence treatment, POAAN; conditions: Poa annua
Procedure: as §1, §2, §3, §4, §5, §6, §7

Avena fatua = assay: greenhouse post-emergence treatment, AVEFA; conditions: Avena fatua, AVEFA; for pest or weed control at 12.5 g/ha: 480 h, 20 DAT; for inhibition at 500000 µg/mL (stock): sc, 504 h, 21 DAT
Procedure: as §1
(§8) To this end, the test plants were either sown directly, and grown in the same containers, or they were first grown separately as seedlings and transplanted into the test containers a few days prior to treatment.
as §3, §4, §5
(§9) In the examples, the solvent used was water.
(§10) In the examples below, using the method of S. R. Colby (1967) “Calculating synergistic and antagonistic responses of herbicide combinations”, Weeds 15, p. […] E=X+Y−(X·Y/100) where X=effect in percent using herbicide A at an application rate a; • Y=effect in percent using herbicide B at application rate b; • E=expected effect (in %) of herbicide A+herbicide B at application rates a+b.

Polygonum aviculare = assay: greenhouse post-emergence treatment, POLAV; conditions: POLAV
Procedure: as §1, §2, §3, §4, §5, §6, §7

Polygonum convolvulus = assay: greenhouse post-emergence treatment, POLCO; conditions: Fallopia convolvulus; for inhibition at 500000 µg/mL (stock): sc, 504 h, POLCO, 21 DAT
Procedure: as §1, §2, §3, §4, §5, §6, §7

Bromus sterilis = assay: greenhouse post-emergence treatment, BROST
Procedure: as §1, §8, §3, §4, §5, §9, §10

Matricaria chamomilla = assay: greenhouse post-emergence treatment, MATCH; conditions: Matricaria chamomilla; for inhibition at 500000 µg/mL (stock): sc, 504 h, MATCH, 21 DAT
Procedure: as §1, §2, §3, §4, §5, §6, §7

Papaver rhoeas = assay: greenhouse post-emergence treatment, PAPRH; conditions: Papaver rhoeas, 480 h, PAPRH, 20 DAT
Procedure: as §1, §2, §3, §4, §5, §6, §7

Lolium multiflorum = assay: greenhouse post-emergence treatment, LOLMU; conditions: Lolium multiflorum, LOLMU; for inhibition at 500000 µg/mL (stock): sc, 504 h, 21 DAT
Procedure: as §1, §8, §3, §4, §5, §9, §10

Setaria viridis = assay: greenhouse post-emergence treatment, SETVI; conditions: Setaria viridis, sc, 504 h, SETVI, 21 DAT, solo metazachlor (SC 500 g/l) 31.25 gai/ha
Procedure: as §1, §8, §3, §4, §5, §9, §10

Galium aparine = assay: greenhouse post-emergence treatment, GALAP; conditions: Galium aparine, 504 h, GALAP, 21 DAT, solo metazachlor (SC 500 g/l) 250 gai/ha
Procedure: as §1, §2, §3, §4, §5, §6, §7

Stellaria media = assay: greenhouse post-emergence treatment, STEME; conditions: Stellaria media, sc, 504 h, STEME, 21 DAT
Procedure: as §1, §2, §3, §4, §5, §6, §7

Digitaria sanguinalis = assay: greenhouse post-emergence treatment, DIGSA; conditions: Digitaria sanguinalis, sc, 504 h, DIGSA, 21 DAT
Procedure: as §1, §8, §3, §4, §5, §9, §10

[1] = solo cycloxydim (EC 100 g/l) 12.5 gai/ha
[2] = solo metazachlor (SC 500 g/l) 62.5 gai/ha
[3] = solo metazachlor (SC 500 g/l) 125 gai/ha
[4] = solo metazachlor (SC 500 g/l) 250 gai/ha
[5] = solo metazachlor (SC 500 g/l) 31.25 gai/ha

CCCC(=NOCC)C1=C(O)CC(C2CCCSC2)CC1=O (centres unmarked) [cycloxydim]
% activity (Brachiaria decumbens; BRADC, 20 DAT, solo cycloxydim (EC 100 g/l) 12.5 gai/ha): 65%
pest or weed control at 12.5 g/ha (Brachiaria decumbens; Urochloa decumbens, 480 h): 65%
pest or weed control at 12.5 g/ha (Poa annua; 480 h): 0%
pest or weed control at 25 g/ha (Poa annua; 480 h): 0%
pest or weed control at 50 g/ha (Poa annua; 480 h): 0%
pest or weed control at 100 g/ha (Poa annua; 480 h): 0%
pest or weed control at 12.5 g/ha (Avena fatua; [1]): 20%
pest or weed control at 12.5 g/ha (Avena fatua; cycloxydim solo (EC 100 g/l), 12.5 gai/ha): 20%
% activity (Polygonum aviculare; 20 DAT, solo cycloxydim (EC 100 g/l) 12.5 gai/ha): 0%
% activity (Polygonum aviculare; 20 DAT, solo cycloxydim (EC 100 g/l) 25 gai/ha): 0%
% activity (Polygonum aviculare; 20 DAT, solo cycloxydim (EC 100 g/l) 50 gai/ha): 0%
% activity (Polygonum aviculare; 20 DAT, solo cycloxydim (EC 100 g/l) 100 gai/ha): 0%
% activity (Polygonum aviculare; cycloxydim solo (EC 100 g/l), 12.5 gai/ha, 20 DAT): 0%
% activity (Polygonum aviculare; cycloxydim solo (EC 100 g/l), 25 gai/ha, 20 DAT): 0%
% activity (Polygonum aviculare; cycloxydim solo (EC 100 g/l), 100 gai/ha, 20 DAT): 0%
pest or weed control at 12.5 g/ha (Polygonum convolvulus; 480 h): 0%
pest or weed control at 25 g/ha (Polygonum convolvulus; 480 h): 0%
pest or weed control at 50 g/ha (Polygonum convolvulus; 480 h): 0%
pest or weed control at 100 g/ha (Polygonum convolvulus; 480 h): 0%
% activity (Bromus sterilis; BROST, 20 DAT, solo cycloxydim (EC 100 g/l) 12.5 gai/ha): 25%
pest or weed control at 12.5 g/ha (Bromus sterilis; Bromus sterilis, 480 h): 25%
pest or weed control at 12.5 g/ha (Matricaria chamomilla; 480 h): 0%
pest or weed control at 25 g/ha (Matricaria chamomilla; 480 h): 0%
pest or weed control at 50 g/ha (Matricaria chamomilla; 480 h): 0%
pest or weed control at 100 g/ha (Matricaria chamomilla; 480 h): 0%
pest or weed control at 12.5 g/ha (Papaver rhoeas; [1]): 0%
pest or weed control at 100 g/ha (Papaver rhoeas; solo cycloxydim (EC 100 g/l) 100 gai/ha): 0%
pest or weed control at 12.5 g/ha (Lolium multiflorum; 480 h, cycloxydim solo (EC 100 g/l), 12.5 gai/ha, 20 DAT): 90%

Cc1cccc(C)c1N(Cn1cccn1)C(=O)CCl [metazachlor]
inhibition at 500000 µg/mL (stock) (Brachiaria decumbens; Urochloa decumbens, BRADC, solo metazachlor (SC 500 g/l) 31.25 gai/ha): 10%
inhibition at 500000 µg/mL (stock) (Brachiaria decumbens; Urochloa decumbens, BRADC, solo metazachlor (SC 500 g/l) 62.5 gai/ha): 20%
inhibition at 500000 µg/mL (stock) (Brachiaria decumbens; Urochloa decumbens, BRADC, solo metazachlor (SC 500 g/l) 125 gai/ha): 25%
inhibition at 500000 µg/mL (stock) (Brachiaria decumbens; Urochloa decumbens, BRADC, solo metazachlor (SC 500 g/l) 250 gai/ha): 60%
inhibition at 500000 µg/mL (stock) (Setaria viridis): 65%
inhibition at 500000 µg/mL (stock) (Poa annua; 504 h, POAAN, 21 DAT, solo metazachlor (SC 500 g/l) 250 gai/ha): 85%
inhibition at 500000 µg/mL (stock) (Avena fatua; [2]): 10%
inhibition at 500000 µg/mL (stock) (Avena fatua; [3]): 0%
inhibition at 500000 µg/mL (stock) (Avena fatua; [4]): 10%
inhibition at 500000 µg/mL (stock) (Galium aparine): 85%
inhibition at 500000 µg/mL (stock) (Polygonum aviculare; Polygonum aviculare, 504 h, 21 DAT, solo metazachlor (SC 500 g/l) 125 gai/ha): 25%
% activity (Polygonum aviculare; metazachlor solo (SC 500 g/l), 31.25 gai/ha, 21 DAT): 20%
inhibition at 500000 µg/mL (stock) (Polygonum convolvulus; [5]): 0%
inhibition at 500000 µg/mL (stock) (Polygonum convolvulus; [2]): 0%
inhibition at 500000 µg/mL (stock) (Polygonum convolvulus; [3]): 10%
inhibition at 500000 µg/mL (stock) (Polygonum convolvulus; [4]): 20%
inhibition at 500000 µg/mL (stock) (Matricaria chamomilla; [5]): 0%
inhibition at 500000 µg/mL (stock) (Matricaria chamomilla; [2]): 0%
inhibition at 500000 µg/mL (stock) (Matricaria chamomilla; [4]): 20%
inhibition at 500000 µg/mL (stock) (Stellaria media; [5]): 0%
inhibition at 500000 µg/mL (stock) (Stellaria media; [2]): 0%
inhibition at 500000 µg/mL (stock) (Stellaria media; [3]): 25%
inhibition at 500000 µg/mL (stock) (Stellaria media; [4]): 35%
inhibition at 500000 µg/mL (stock) (Digitaria sanguinalis; [5]): 0%
inhibition at 500000 µg/mL (stock) (Digitaria sanguinalis; [4]): 75%
inhibition at 500000 µg/mL (stock) (Lolium multiflorum; [5]): 30%
inhibition at 500000 µg/mL (stock) (Lolium multiflorum; [3]): 85%
inhibition at 500000 µg/mL (stock) (Lolium multiflorum; [4]): 85%
